Measurements published in PubChem BioAssay AID1963974 (Molecular Pharmacology Branch, DTP, NCI, 2024).

System: 648629-189-R-J1-PDC spheroids with HUVEC/MSC, viability
Test: Anticancer human tumor 648629-189-R-J1-PDC patient-derived bladder carcinoma cell line growth inhibition [PI3K]
Conditions: for IC50: curve of first compound; for viability, T/C: stronger effect = lower value
Description: Combinatorial screen of targeted agents with the PI3K inhibitors inavolisib, alpelisib, duvelisib, and copanlisib in multi-cell type tumor spheroids
A high-throughput screen of multi-cell type tumor spheroids was designed to identify active combinations of targeted small molecules and PI3K pathway inhibitors. Complex spheroids include a stromal component modeled by human endothelial cells (HUVEC) and fibroblasts modeled by human mesenchymal stem cells (MSCs). The concentration ranges selected for each drug and investigational agent were based upon clinically achievable concentrations if the clinical Cmax of the agent was known.
Compounds. The drugs and investigational agents: inavolisib (NSC800729), alpelisib (NSC765974), duvelisib (NSC772469), copanlisib (NSC816437), ipatasertib (NSC767898), afuresertib (NSC778305), talazoparib (NSC767125), sapanisertib (NSC764658), selumetinib (NSC741078), tovorafenib (DAY101, NSC766906), vemurafenib (NSC761431), ravoxertinib (NSC781343), sotorasib (NSC818433), MRTX1133 (NSC 836407), abemaciclib (NSC 768073), palbociclib (NSC758247), venetoclax (NSC 766270), SY5609 (NSC837396), enzalutamide (NSC755605), and darolutamide (NSC825331), were obtained from the National Cancer Institute (NCI) Developmental Therapeutics Program Chemical Repository. The FDA-approved anticancer drug set is available from the NCI Developmental Therapeutics Program. […] The stock solutions were prepared in dimethyl sulfoxide (DMSO, Sigma-Aldrich, St. Louis, MO, cat. D2650) at 800-fold the tested concentration and stored at -70 degrees C prior to their use. All drugs and investigational agents were tested over a range starting from a high concentration at or near the clinical Cmax and decreasing in half-log increments. If the clinical Cmax for an agent had not been determined, the highest concentration tested was 10 microM.
Cell Culture. All cells were maintained in an incubator at 37 degrees C and 5% CO2 with 95% humidity. The PDC lines were cultured according to standard operating procedures established by the NCI PDMR (https://pdmr.cancer.gov/sops/default.htm). All PDCs were thawed and cultured in Matrigel-coated flasks prepared with a working solution of 1X Ham's F-12 nutrient mix, without supplementation (Invitrogen, Waltham, MA, cat. 11765054), 100 U/mL penicillin-streptomycin (Invitrogen, cat. 15140122), and 2.5% Matrigel (Corning Inc., Corning, NY, cat. 354248) for the first three passages. The 354836-022-R-J1-PDC, 475296-252-R-J1-PDC, and 997726-040-R-J2-PDC lines were cultured in 6A media, which includes advanced DMEM/F-12 (Thermo Fisher Scientific, cat. 12634028), 10 mM HEPES (Thermo Fisher Scientific, cat. 15630080), 1X GlutaMAX supplement (Thermo Fisher Scientific, cat. 35050061), 0.1 mg/mL primocin (InvivoGen, San Diego, CA, cat. ant-pm-2), 10% defined fetal bovine serum, heat inactivated (HyClone Laboratories Inc., Logan, UT, cat. SH30070.03HI), 50% L-WRN conditioned media (ATCC, cat. CRL-3276), 1.25 mM N-Acetyl-L-cysteine (Sigma-Aldrich, cat. A9165), 10 mM nicotinamide (Sigma-Aldrich, cat. N0636), 1X B-27 supplement (Thermo Fisher Scientific, cat. 17504044), 1X N-2 supplement (Thermo Fisher Scientific, cat. 17502048), and 10 microM Y-27632 dihydrochloride (Tocris Bioscience, Bristol, United Kingdom, cat. 1254). The 624824-186-R-J2-PDC line was cultured in 6C/Colon 1B media, which includes all 6A media components plus 50 ng/mL human EGF recombinant protein (Thermo Fisher Scientific, cat. PHG0311). […]
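Note: spheroids exposed to agents for seven days before reading.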
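Throughout, for viability, T/C: percent of vehicle control luminescence where 100% = DMSO treated spheroids.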

**Q.** For `Cn1cnc2c(F)c(Nc3ccc(Br)cc3Cl)c(C(=O)NOCCO)cc21` + CC(Nc1ccc2c(c1)OCCn1cc(N3C(=O)OCC3C(F)F)nc1-2)C(N)=O, which IC50 (second compound 0.00316 µM) is on record?
**A.** > 3 µM

**Q.** And the IC50 (second compound 0.01 µM)?
**A.** > 3 µM

**Q.** And the IC50 (second compound 0.0316 µM)?
**A.** > 3 µM

**Q.** What about the IC50 (second compound 0.1 µM) of the same molecule?
**A.** > 3 µM

**Q.** And the IC50 (second compound 0.316 µM)?
**A.** > 3 µM

**Q.** And the IC50 (second compound 1 µM)?
**A.** > 3 µM

**Q.** What about the viability, T/C (second compound 0.00316 µM, first compound 0.00949 µM) of the same molecule?
**A.** 95.5%

**Q.** And the viability, T/C (second compound 0.00316 µM, first compound 0.03 µM)?
**A.** 103%

**Q.** What about the viability, T/C (second compound 0.00316 µM, first compound 0.0949 µM) of the same molecule?
**A.** 99.2%

**Q.** And the viability, T/C (second compound 0.00316 µM, first compound 0.3 µM)?
**A.** 91.8%

**Q.** And the viability, T/C (second compound 0.00316 µM, first compound 0.949 µM)?
**A.** 94.4%

**Q.** What about the viability, T/C (second compound 0.00316 µM, first compound 3 µM) of the same molecule?
**A.** 81.6%

**Q.** What about the viability, T/C (second compound 0.01 µM, first compound 0.00949 µM) of the same molecule?
**A.** 93.4%

**Q.** What about the viability, T/C (second compound 0.01 µM, first compound 0.03 µM) of the same molecule?
**A.** 91.2%

**Q.** And the viability, T/C (second compound 0.01 µM, first compound 0.0949 µM)?
**A.** 92.9%

**Q.** What about the viability, T/C (second compound 0.01 µM, first compound 0.3 µM) of the same molecule?
**A.** 91.8%

**Q.** And the viability, T/C (second compound 0.01 µM, first compound 0.949 µM)?
**A.** 103%

**Q.** And the viability, T/C (second compound 0.01 µM, first compound 3 µM)?
**A.** 81.1%

**Q.** What about the viability, T/C (second compound 0.0316 µM, first compound 0.00949 µM) of the same molecule?
**A.** 98.5%

**Q.** What about the viability, T/C (second compound 0.0316 µM, first compound 0.03 µM) of the same molecule?
**A.** 96.2%

**Q.** What about the viability, T/C (second compound 0.0316 µM, first compound 0.0949 µM) of the same molecule?
**A.** 87.5%

**Q.** And the viability, T/C (second compound 0.0316 µM, first compound 0.3 µM)?
**A.** 89.3%

**Q.** What about the viability, T/C (second compound 0.0316 µM, first compound 0.949 µM) of the same molecule?
**A.** 95.2%

**Q.** And the viability, T/C (second compound 0.0316 µM, first compound 3 µM)?
**A.** 79.2%

**Q.** What about the viability, T/C (second compound 0.1 µM, first compound 0.00949 µM) of the same molecule?
**A.** 90.7%

**Q.** What about the viability, T/C (second compound 0.1 µM, first compound 0.03 µM) of the same molecule?
**A.** 91.7%

**Q.** And the viability, T/C (second compound 0.1 µM, first compound 0.0949 µM)?
**A.** 82.6%

**Q.** And the viability, T/C (second compound 0.1 µM, first compound 0.3 µM)?
**A.** 92.2%

**Q.** And the viability, T/C (second compound 0.1 µM, first compound 0.949 µM)?
**A.** 93.9%

**Q.** And the viability, T/C (second compound 0.1 µM, first compound 3 µM)?
**A.** 75.8%

**Q.** And the viability, T/C (second compound 0.316 µM, first compound 0.00949 µM)?
**A.** 81.1%

**Q.** And the viability, T/C (second compound 0.316 µM, first compound 0.03 µM)?
**A.** 79.2%

**Q.** What about the viability, T/C (second compound 0.316 µM, first compound 0.0949 µM) of the same molecule?
**A.** 70.3%

**Q.** What about the viability, T/C (second compound 0.316 µM, first compound 0.3 µM) of the same molecule?
**A.** 78.5%

**Q.** What about the viability, T/C (second compound 0.316 µM, first compound 0.949 µM) of the same molecule?
**A.** 74.3%

**Q.** And the viability, T/C (second compound 0.316 µM, first compound 3 µM)?
**A.** 69.1%

**Q.** What about the viability, T/C (second compound 1 µM, first compound 0.00949 µM) of the same molecule?
**A.** 66.1%

**Q.** And the viability, T/C (second compound 1 µM, first compound 0.03 µM)?
**A.** 70.4%

**Q.** What about the viability, T/C (second compound 1 µM, first compound 0.0949 µM) of the same molecule?
**A.** 66.4%

**Q.** What about the viability, T/C (second compound 1 µM, first compound 0.3 µM) of the same molecule?
**A.** 96.4%

**Q.** And the viability, T/C (second compound 1 µM, first compound 0.949 µM)?
**A.** 66%

**Q.** And the viability, T/C (second compound 1 µM, first compound 3 µM)?
**A.** 51%

**Q.** How did the IC50 (second compound 0.0316 µM) turn out when `CNC(=O)c1ccc(N2C(=S)N(c3ccc(C#N)c(C(F)(F)F)c3)C(=O)C2(C)C)cc1F` + Cc1nc(NC(=O)N2CCCC2C(N)=O)sc1-c1ccnc(C(C)(C)C(F)(F)F)c1 was run?
**A.** > 10 µM

**Q.** What about the IC50 (second compound 0.1 µM) of the same molecule?
**A.** > 10 µM

**Q.** What about the IC50 (second compound 0.316 µM) of the same molecule?
**A.** > 10 µM

**Q.** And the IC50 (second compound 1 µM)?
**A.** > 10 µM

**Q.** And the IC50 (second compound 3.16 µM)?
**A.** > 10 µM

**Q.** And the IC50 (second compound 10 µM)?
**A.** < 0.0316 µM

**Q.** What about the viability, T/C (second compound 0.0316 µM, first compound 0.0316 µM) of the same molecule?
**A.** 106%

**Q.** And the viability, T/C (second compound 0.0316 µM, first compound 0.1 µM)?
**A.** 105%

**Q.** And the viability, T/C (second compound 0.0316 µM, first compound 0.316 µM)?
**A.** 118%

**Q.** And the viability, T/C (second compound 0.0316 µM, first compound 1 µM)?
**A.** 111%

**Q.** And the viability, T/C (second compound 0.0316 µM, first compound 3.16 µM)?
**A.** 104%

**Q.** What about the viability, T/C (second compound 0.0316 µM, first compound 10 µM) of the same molecule?
**A.** 89.7%

**Q.** And the viability, T/C (second compound 0.1 µM, first compound 0.0316 µM)?
**A.** 90.1%

**Q.** What about the viability, T/C (second compound 0.1 µM, first compound 0.1 µM) of the same molecule?
**A.** 92.7%

**Q.** And the viability, T/C (second compound 0.1 µM, first compound 0.316 µM)?
**A.** 106%

**Q.** And the viability, T/C (second compound 0.1 µM, first compound 1 µM)?
**A.** 102%

**Q.** And the viability, T/C (second compound 0.1 µM, first compound 3.16 µM)?
**A.** 102%

**Q.** And the viability, T/C (second compound 0.1 µM, first compound 10 µM)?
**A.** 79%

**Q.** What about the viability, T/C (second compound 0.316 µM, first compound 0.0316 µM) of the same molecule?
**A.** 91.4%

**Q.** What about the viability, T/C (second compound 0.316 µM, first compound 0.1 µM) of the same molecule?
**A.** 99.7%

**Q.** And the viability, T/C (second compound 0.316 µM, first compound 0.316 µM)?
**A.** 98.1%

**Q.** What about the viability, T/C (second compound 0.316 µM, first compound 1 µM) of the same molecule?
**A.** 98.4%

**Q.** What about the viability, T/C (second compound 0.316 µM, first compound 3.16 µM) of the same molecule?
**A.** 89.7%

**Q.** What about the viability, T/C (second compound 0.316 µM, first compound 10 µM) of the same molecule?
**A.** 72.8%

**Q.** What about the viability, T/C (second compound 1 µM, first compound 0.0316 µM) of the same molecule?
**A.** 73.2%

**Q.** And the viability, T/C (second compound 1 µM, first compound 0.1 µM)?
**A.** 82.3%

**Q.** What about the viability, T/C (second compound 1 µM, first compound 0.316 µM) of the same molecule?
**A.** 76.7%

**Q.** What about the viability, T/C (second compound 1 µM, first compound 1 µM) of the same molecule?
**A.** 81.1%

**Q.** And the viability, T/C (second compound 1 µM, first compound 3.16 µM)?
**A.** 78.6%

**Q.** What about the viability, T/C (second compound 1 µM, first compound 10 µM) of the same molecule?
**A.** 75.2%

**Q.** And the viability, T/C (second compound 3.16 µM, first compound 0.0316 µM)?
**A.** 64%

**Q.** And the viability, T/C (second compound 3.16 µM, first compound 0.1 µM)?
**A.** 67.1%

**Q.** What about the viability, T/C (second compound 3.16 µM, first compound 0.316 µM) of the same molecule?
**A.** 55.1%

**Q.** What about the viability, T/C (second compound 3.16 µM, first compound 1 µM) of the same molecule?
**A.** 60.7%

**Q.** And the viability, T/C (second compound 3.16 µM, first compound 3.16 µM)?
**A.** 64.7%

**Q.** And the viability, T/C (second compound 3.16 µM, first compound 10 µM)?
**A.** 63.2%

**Q.** What about the viability, T/C (second compound 10 µM, first compound 0.0316 µM) of the same molecule?
**A.** 40.3%

**Q.** And the viability, T/C (second compound 10 µM, first compound 0.1 µM)?
**A.** 44.1%

**Q.** What about the viability, T/C (second compound 10 µM, first compound 0.316 µM) of the same molecule?
**A.** 40.2%

**Q.** And the viability, T/C (second compound 10 µM, first compound 1 µM)?
**A.** 42%

**Q.** What about the viability, T/C (second compound 10 µM, first compound 3.16 µM) of the same molecule?
**A.** 45.7%

**Q.** What about the viability, T/C (second compound 10 µM, first compound 10 µM) of the same molecule?
**A.** 48.6%
